Source: PubChem BioAssay (NCI)
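The concentration for 50% growth inhibition is given as GI50. TGI: total growth inhibition.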

Assays:
Assay in all cases: NCI tumour cell line growth inhibition, 384-well format
EKVX NSCLC = test system: EKVX NSCLC
CAKI-1 renal = test system: CAKI-1 renal
HS 578T breast = test system: HS 578T breast
OVCAR-4 ovarian = test system: OVCAR-4 ovarian
IGROV1 ovarian = test system: IGROV1 ovarian
NCI/ADR-RES ovarian = test system: NCI/ADR-RES ovarian
RPMI-8226 leukemia = test system: RPMI-8226 leukemia
SF-539 CNS = test system: SF-539 CNS
SNB-19 CNS = test system: SNB-19 CNS
NCI-H522 lung = test system: NCI-H522 lung
NCI-H23 lung = test system: NCI-H23 lung
SK-OV-3 ovarian = test system: SK-OV-3 ovarian
SF-295 CNS = test system: SF-295 CNS
NCI-H460 NSCLC = test system: NCI-H460 NSCLC
BT-549 breast = test system: BT-549 breast
DU-145 prostate = test system: DU-145 prostate
SF-268 CNS = test system: SF-268 CNS
SK-MEL-5 melanoma = test system: SK-MEL-5 melanoma
MDA-MB-435 melanoma = test system: MDA-MB-435 melanoma
CCRF-CEM leukemia = test system: CCRF-CEM leukemia
NCI-H226 lung = test system: NCI-H226 lung
RXF 393 renal = test system: RXF 393 renal
K-562 leukemia = test system: K-562 leukemia
SK-MEL-2 melanoma = test system: SK-MEL-2 melanoma
A549 NSCLC = test system: A549 NSCLC
TK-10 renal = test system: TK-10 renal
M14 melanoma = test system: M14 melanoma
ACHN renal = test system: ACHN renal
HL-60(TB) leukemia = test system: HL-60(TB) leukemia
SW-620 colon = test system: SW-620 colon
MALME-3M melanoma = test system: MALME-3M melanoma
HCT-116 colon = test system: HCT-116 colon
HCC-2998 colon = test system: HCC-2998 colon
MCF7 breast = test system: MCF7 breast
UACC-257 melanoma = test system: UACC-257 melanoma
KM12 colon = test system: KM12 colon
NCI-H322M lung = test system: NCI-H322M lung
OVCAR-3 ovarian = test system: OVCAR-3 ovarian
786-0 renal = test system: 786-0 renal
MDA-MB-468 breast = test system: MDA-MB-468 breast
MOLT-4 leukemia = test system: MOLT-4 leukemia
A498 renal = test system: A498 renal
HOP-62 NSCLC = test system: HOP-62 NSCLC
HT29 colon = test system: HT29 colon
OVCAR-8 ovarian = test system: OVCAR-8 ovarian
COLO 205 colon = test system: COLO 205 colon
UACC-62 melanoma = test system: UACC-62 melanoma
SN12C renal = test system: SN12C renal
U251 glioblastoma = test system: U251 glioblastoma
HCT-15 colon = test system: HCT-15 colon
SNB-75 CNS = test system: SNB-75 CNS
LOX IMVI melanoma = test system: LOX IMVI melanoma
PC-3 prostate = test system: PC-3 prostate
SK-MEL-28 melanoma = test system: SK-MEL-28 melanoma

With `CCOC(=O)c1cc(/C=C/c2ccc(Cl)cc2Cl)on1` the GI50 (EKVX NSCLC) was 2.7 µM, the TGI (EKVX NSCLC) was 8.84 µM and the GI50 (CAKI-1 renal) was 1.77 µM. It also gave a TGI (CAKI-1 renal) of 3.91 µM, a GI50 (HS 578T breast) of 1.97 µM and a TGI (HS 578T breast) of 3.54 µM. It also gave a GI50 (OVCAR-4 ovarian) of 2.63 µM, a TGI (OVCAR-4 ovarian) of 7.19 µM and a GI50 (IGROV1 ovarian) of 2.09 µM. It also gave a TGI (IGROV1 ovarian) of 4.34 µM, a GI50 (NCI/ADR-RES ovarian) of 1.84 µM and a TGI (NCI/ADR-RES ovarian) of 3.3 µM. The GI50 (RPMI-8226 leukemia) was 0.471 µM, the TGI (RPMI-8226 leukemia) was 1.25 µM and the GI50 (SF-539 CNS) was 0.945 µM. For the same compound, the TGI (SF-539 CNS) was 2.19 µM, the GI50 (SNB-19 CNS) was 3.1 µM and the TGI (SNB-19 CNS) was 8.17 µM. It also gave a GI50 (NCI-H522 lung) of 2.02 µM, a TGI (NCI-H522 lung) of 3.51 µM and a GI50 (NCI-H23 lung) of 2.34 µM. For the same compound, the TGI (NCI-H23 lung) was 5.29 µM, the GI50 (SK-OV-3 ovarian) was 2.01 µM and the TGI (SK-OV-3 ovarian) was 4.15 µM. For the same compound, the GI50 (SF-295 CNS) was 2.47 µM, the TGI (SF-295 CNS) was 5.3 µM and the GI50 (NCI-H460 NSCLC) was 1.22 µM. It also gave a TGI (NCI-H460 NSCLC) of 2.59 µM, a GI50 (BT-549 breast) of 2.11 µM and a TGI (BT-549 breast) of 4.35 µM. The GI50 (DU-145 prostate) was 4.46 µM, the TGI (DU-145 prostate) was over 100 µM and the GI50 (SF-268 CNS) was 4.09 µM. It also gave a TGI (SF-268 CNS) of 13.5 µM, a GI50 (SK-MEL-5 melanoma) of 1.77 µM and a TGI (SK-MEL-5 melanoma) of 3.53 µM. The GI50 (MDA-MB-435 melanoma) was 3.41 µM, the TGI (MDA-MB-435 melanoma) was 11.3 µM and the GI50 (CCRF-CEM leukemia) was 1.13 µM. The TGI (CCRF-CEM leukemia) was 2.37 µM, the GI50 (NCI-H226 lung) was 1.96 µM and the TGI (NCI-H226 lung) was 3.83 µM. For the same compound, the GI50 (RXF 393 renal) was 1.99 µM, the TGI (RXF 393 renal) was 3.46 µM and the GI50 (K-562 leukemia) was 10.7 µM. The TGI (K-562 leukemia) was 30.8 µM, the GI50 (SK-MEL-2 melanoma) was 2.12 µM and the TGI (SK-MEL-2 melanoma) was 4.35 µM. The GI50 (A549 NSCLC) was 2.44 µM, the TGI (A549 NSCLC) was 6.1 µM and the GI50 (TK-10 renal) was 2.37 µM. It also gave a TGI (TK-10 renal) of 4.71 µM, a GI50 (M14 melanoma) of 3.27 µM and a TGI (M14 melanoma) of 8.82 µM. The GI50 (ACHN renal) was 1.86 µM, the TGI (ACHN renal) was 3.39 µM and the GI50 (HL-60(TB) leukemia) was 0.818 µM. For the same compound, the TGI (HL-60(TB) leukemia) was 2.04 µM, the GI50 (SW-620 colon) was 1.36 µM and the TGI (SW-620 colon) was 3.02 µM. It also gave a GI50 (MALME-3M melanoma) of 2.39 µM, a TGI (MALME-3M melanoma) of 4.05 µM and a GI50 (HCT-116 colon) of 0.74 µM. It also gave a TGI (HCT-116 colon) of 2.04 µM, a GI50 (HCC-2998 colon) of 1.96 µM and a TGI (HCC-2998 colon) of 3.97 µM. It also gave a GI50 (MCF7 breast) of 0.662 µM, a TGI (MCF7 breast) of 2.81 µM and a GI50 (UACC-257 melanoma) of 2.95 µM. For the same compound, the TGI (UACC-257 melanoma) was 5.65 µM, the GI50 (KM12 colon) was 0.932 µM and the TGI (KM12 colon) was 3.93 µM. It also gave a GI50 (NCI-H322M lung) of 4.04 µM, a TGI (NCI-H322M lung) of 14.1 µM and a GI50 (OVCAR-3 ovarian) of 1.85 µM. The TGI (OVCAR-3 ovarian) was 3.55 µM, the GI50 ([…]-0 renal) was 1.84 µM and the TGI (786-0 renal) was 3.35 µM. The GI50 (MDA-MB-468 breast) was 2.28 µM, the TGI (MDA-MB-468 breast) was 3.94 µM and the GI50 (MOLT-4 leukemia) was 1.03 µM. It also gave a TGI (MOLT-4 leukemia) of 2.21 µM, a GI50 (A498 renal) of 1.85 µM and a TGI (A498 renal) of 3.33 µM. The GI50 (HOP-62 NSCLC) was 0.469 µM, the TGI (HOP-62 NSCLC) was 2.83 µM and the GI50 (HT29 colon) was 1.92 µM. It also gave a TGI (HT29 colon) of 4.22 µM, a GI50 (OVCAR-8 ovarian) of 0.649 µM and a TGI (OVCAR-8 ovarian) of 11 µM. The GI50 (COLO 205 colon) was 2.72 µM, the TGI (COLO 205 colon) was 6.54 µM and the GI50 (UACC-62 melanoma) was 2.08 µM. For the same compound, the TGI (UACC-62 melanoma) was 4.26 µM, the GI50 (SN12C renal) was 1.81 µM and the TGI (SN12C renal) was 3.32 µM. For the same compound, the GI50 (U251 glioblastoma) was 1.27 µM, the TGI (U251 glioblastoma) was 3.3 µM and the GI50 (HCT-15 colon) was 1.36 µM. It also gave a TGI (HCT-15 colon) of 4.34 µM, a GI50 (SNB-75 CNS) of 3.2 µM and a TGI (SNB-75 CNS) of 6.12 µM. For the same compound, the GI50 (LOX IMVI melanoma) was 1.91 µM, the TGI (LOX IMVI melanoma) was 3.63 µM and the GI50 (PC-3 prostate) was 1.97 µM. The TGI (PC-3 prostate) was 4.05 µM, the GI50 (SK-MEL-28 melanoma) was 2.42 µM and the TGI (SK-MEL-28 melanoma) was 4.39 µM.
